Measured values from the supplement of paper PMC10307832.

Compound: CCOC1=CC=CC=C1N=NC2=C(NN(C2=O)C3=NC(=CS3)C4=CC=CC=C4)C [BAM7] + Nc1ncn([C@H]2C[C@H](O)[C@@H](CO)O2)c(=O)n1 [Decitabine] (partner 2 µM)
Assay: relative viability (nuclei count vs DMSO), 5 days (fraction); higher = more cells survive
Conditions: first compound 0.5 µM
Outline: (§1)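 Lung cancer cell lines, seeded in 1536-well plates, were treated the following day by pin tool with a single drug or with five library-drug doses (not always all listed) in √10 steps on top of a fixed anchor-drug dose. Cells were fixed and nuclei stained in one step after 5 days, and nuclei were counted. Relative viability is the nuclei count for treated wells divided by that for vehicle wells, reported as medians of duplicate plates.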

Cell Line | relative viability
NCI-H460 | 0.475
NCI-H2347 | 0.598
SK-LU-1 | 0.626
201T | 0.844
NCI-H1915 | 0.266
HCC-827 | 0.314
LXF-289 | 0.341
NCI-H23 | 0.347
NCI-H647 | 0.404

Same assay, conditions: first compound 5 µM

Cell Line | relative viability
HCC-78 | 0.696
NCI-H322M | 0.722
LCLC-97TM1 | 0.269
NCI-H2009 | 0.39
A-427 | 0.551
NCI-H441 | 0.251
NCI-H661 | 0.579
NCI-H1734 | 0.519
NCI-H460 | 0.455
NCI-H2347 | 0.736
SK-LU-1 | 0.629
201T | 0.887
NCI-H1915 | 0.259
HCC-827 | 0.314
LXF-289 | 0.339
NCI-H23 | 0.332
NCI-H647 | 0.372

Same assay, conditions: first compound 15.81 µM

Cell Line | relative viability
HCC-78 | 0.731
NCI-H322M | 0.742
NCI-H2009 | 0.351
A-427 | 0.543
NCI-H441 | 0.235
NCI-H661 | 0.611
NCI-H1734 | 0.551
NCI-H460 | 0.473
NCI-H2347 | 0.641
SK-LU-1 | 0.693
201T | 0.837
NCI-H1915 | 0.249
HCC-827 | 0.376
LXF-289 | 0.353
NCI-H23 | 0.322
NCI-H647 | 0.436

Same assay, conditions: first compound 50 µM

Cell Line | relative viability
HCC-78 | 0.752
NCI-H322M | 0.692
LCLC-97TM1 | 0.24
NCI-H2009 | 0.418
A-427 | 0.569
NCI-H441 | 0.209
NCI-H661 | 0.579
NCI-H1734 | 0.489
NCI-H460 | 0.449
NCI-H2347 | 0.606
SK-LU-1 | 0.697
201T | 0.926
NCI-H1915 | 0.281
HCC-827 | 0.302
LXF-289 | 0.407
NCI-H23 | 0.304
NCI-H647 | 0.438

Compound: CCn1c(-c2nonc2N)nc2c(C#CC(C)(C)O)ncc(OC[C@H]3CCCNC3)c21 + C[C@@H](Oc1cc(-c2cnn(C3CCNCC3)c2)cnc1N)c1c(Cl)ccc(F)c1Cl [Crizotinib] (partner 1 µM)
Assay: as above
Conditions: first compound 0.01 µM
Outline: as §1

Cell Line | relative viability
HCC-78 | 0.344
NCI-H322M | 0.969
NCI-H2009 | 0.941
A-427 | 0.925
NCI-H441 | 0.676
NCI-H661 | 1.03
NCI-H1734 | 0.629
NCI-H460 | 0.895
NCI-H2347 | 0.7
SK-LU-1 | 1.11
201T | 1.01
NCI-H1915 | 0.909
HCC-827 | 0.884
LXF-289 | 0.856
NCI-H23 | 0.477
NCI-H647 | 1.04

Same assay, conditions: first compound 0.03162 µM

Cell Line | relative viability
HCC-78 | 0.353
NCI-H322M | 0.981
LCLC-97TM1 | 0.435
NCI-H2009 | 1.03
A-427 | 0.966
NCI-H441 | 0.621
NCI-H661 | 0.984
NCI-H1734 | 0.721
NCI-H460 | 1.07
NCI-H2347 | 0.815
SK-LU-1 | 0.817
201T | 1.03
NCI-H1915 | 0.909
HCC-827 | 0.917
LXF-289 | 0.815
NCI-H23 | 0.572
NCI-H647 | 1.31

Same assay, conditions: first compound 0.1 µM

Cell Line | relative viability
HCC-78 | 0.324
NCI-H322M | 0.9
LCLC-97TM1 | 0.331
NCI-H2009 | 1.09
A-427 | 0.978
NCI-H441 | 0.708
NCI-H661 | 1.08
NCI-H1734 | 0.682
NCI-H460 | 0.814
NCI-H2347 | 0.723
SK-LU-1 | 0.925
201T | 1.04
NCI-H1915 | 0.809
HCC-827 | 0.879
LXF-289 | 0.797
NCI-H23 | 0.444
NCI-H647 | 1.11

Same assay, conditions: first compound 0.3162 µM

Cell Line | relative viability
HCC-78 | 0.297
NCI-H322M | 0.811
LCLC-97TM1 | 0.333
NCI-H2009 | 1.02
A-427 | 0.828
NCI-H441 | 0.586
NCI-H661 | 0.992
NCI-H1734 | 0.685
NCI-H460 | 0.786
NCI-H2347 | 0.708
SK-LU-1 | 0.978
201T | 1
NCI-H1915 | 0.872
HCC-827 | 0.865
LXF-289 | 0.758
NCI-H23 | 0.48
NCI-H647 | 1.07

Same assay, conditions: first compound 1 µM

Cell Line | relative viability
HCC-78 | 0.322
NCI-H322M | 0.914
LCLC-97TM1 | 0.367
NCI-H2009 | 1.07
A-427 | 0.846
NCI-H441 | 0.728
NCI-H661 | 0.989
NCI-H1734 | 0.641
NCI-H460 | 0.884
NCI-H2347 | 0.813
SK-LU-1 | 0.987
201T | 1.03
NCI-H1915 | 0.856
HCC-827 | 0.882
LXF-289 | 0.828
NCI-H23 | 0.417
NCI-H647 | 0.92
